tested on: influenza virus (H3N2); assay: antiviral efficacy on MDCK cell line in vitro; assay type: cell-based; conditions: MDCK cells infected with influenza virus (H3N2); test compound present from 1 hour after viral infection until end of culture; over a wide concentration range (FIG.3-5)
Experimental: For influenza virus, MDCK cells that were permissive of viral replication were grown up to sufficient numbers in growth media with supplements. Once MDCK cells were confluent they were seeded into 96 well flat-bottomed plates (2x10^4 cells/well), incubated overnight and then infected with the influenza virus (H3N2) at the correct concentration and incubated in order to allow productive infection of the MDCK cells.
After the initial seeding of cells overnight (200 µl/well), the medium was removed and influenza viral infection performed in a smaller volume (25µl/well) for 1 hour. After the 1 hour infection, the viral inoculum was removed and replaced with medium (200p1/well) containing test compound. Thus, disodium 2,6-dimethyl-1,4-dihydropyridine-3,5-bis(carbonyloxyacetate) and its derivatives - disodium 2,4,6-trimethyl-1,4-dihydropyridine-3,5-bis-carbonyloxyacetate and disodium 4-ethyl-2,6-dimethyl-1,4-dihydropyridine-3,5-bis(carbonyloxyacetate) (compounds with general formula I), were presented from 1 hour after viral infection until the end of the culture period.
The antiviral efficacy of disodium 2,6-dimethyl-1,4-dihydropyridine-3,5-bis(carbonyloxyacetate) and its derivatives - disodium 2,4,6-trimethyl-1,4-dihydropyridine-3,5-bis(carbonyloxyacetate) and disodium 4-ethyl-2,6-dimethyl-1,4-dihydropyridine-3,5-bis(carbonyloxyacetate) (compounds with general formula I), were compared with already known medicaments, such as 1-methyl-2-phenylthiomethyl-3-carbethoxy-4-dimethylaminomethyl-5-oxybromoindole monohydrate hydrochloride and Oseltamivir, and results were represented in FIG.1., FIG.2., FIG.3., FIG.4. and FIG.5.

Row | SMILES | antiviral efficacy
1 | CC1=C(C(=O)OCC(=O)O)C(C)C(C(=O)OCC(=O)O)=C(C)N1 [disodium 2,4,6-trimethyl-1,4-dihydropyridine-3,5-bis-carbonyloxyacetate] | effective against influenza
2 | CC1=C(C(=O)OCC(=O)O)CC(C(=O)OCC(=O)O)=C(C)N1 [disodium 2,6-dimethyl-1,4-dihydropyridine-3,5-bis(carbonyloxyacetate)] | effective against influenza
3 | CCC1C(C(=O)OCC(=O)O)=C(C)NC(C)=C1C(=O)OCC(=O)O [disodium 4-ethyl-2,6-dimethyl-1,4-dihydropyridine-3,5-bis(carbonyloxyacetate)] | effective against influenza
